Laboratory results from US4940702A, “Cephem compounds” (Beecham Group p.l.c., priority 1985, dated 1990).
In brackets after ≈: the same amount, converted by molar mass.

Tests used:
Assay in all cases: Minimum Inhibitory Concentration (MIC) by serial dilution in nutrient agar
Format in all cases: cell-based
K. pneumoniae T767 = conditions: Klebsiella pneumoniae, 10^4 colony forming units, overnight at 37° C.
Protocol: (§1) Minimum Inhibitory Concentration (MIC) values of compounds of the invention against E coli DC 0, K pneumoniae T767, and P aeruginosa NCTC 10662 were determined by serial dilution in a nutrient agar (from Oxoid Ltd., Basingstoke, England). The plates were inoculated with 10^4 colony forming units and incubated overnight at 37° C. The MIC values recorded in Table 1 were the lowest concentration of antibiotic to inhibit growth. Comparative data for 7α-formamido-3-(pyridiniummethyl)-7β-(thien-2-yl-acetamido)-ceph-3-em-4-carboxylate (Compound A), disclosed in European Patent Application No. 82303821.1 (Publication Number 0 071 395), are also given.

E. coli DC 0 = conditions: Escherichia coli, DC0, 10^4 colony forming units, overnight at 37° C.
Protocol: as §1

P. aeruginosa NCTC 10662 = conditions: Pseudomonas aeruginosa, NCTC10662, 10^4 colony forming units, overnight at 37° C.
Protocol: as §1

Structure (SMILES)	MIC (K. pneumoniae T767)	MIC (E. coli DC 0)	MIC (P. aeruginosa NCTC 10662)
O=CN[C@@]1(NC(=O)Cc2cccs2)C(=O)N2C(C(=O)[O-])=C(C[n+]3ccccc3)CS[C@@H]21 [Compound A, 7α-formamido-3-(pyridiniummethyl)-7β-(thien-2-yl-acetamido)-ceph-3-em-4-carboxylate, reference compound]	25 µg/mL (≈ 54.5 µM)	25 µg/mL (≈ 54.5 µM)	50 µg/mL (≈ 109 µM)
CCN1CCN(C(=O)NC(C(=O)NC2(NC=O)C(=O)N3C(C(=O)[O-])=C(C[n+]4cccc5c4CCC5)CSC32)c2ccc(O)c(O)c2)C(=O)C1=O [Example 3, 3-(2,3-Cyclopentenopyridinium)methyl-7β-[D-2-(3,4-dihydroxyphenyl)-2-[(4-ethyl-2,3-dioxopiperazin-1-yl)carbonylamino]acetamido]-7α-formamido-ceph-3-em-4-carboxylate]	0.12 µg/mL (≈ 0.17 µM)	0.12 µg/mL (≈ 0.17 µM)	1 µg/mL (≈ 1.41 µM)
CCN1CCN(C(=O)N[C@@H](C(=O)N[C@]2(NC=O)C(=O)N3C(C(=O)[O-])=C(C[n+]4ccc(C5CC5)cc4)CS[C@@H]32)c2ccccc2)C(=O)C1=O [Example 29, 3-(4-Cyclopropylpyridinium)methyl-7β-[D-2-[(4-ethyl-2,3-dioxopiperazin-1-yl)carbonylamino]-2-phenylacetamido]-7α-formamido-ceph-3-em-4-carboxylate]	1 µg/mL (≈ 1.48 µM)	0.5 µg/mL (≈ 0.74 µM)	8 µg/mL (≈ 11.8 µM)
